Source: patent US9328099B2, “Cyanomethylpyrazole carboxamides as janus kinase inhibitors” (Merck Sharp & Dohme Corp., priority 2011, dated 2016)

How the values were obtained:
JAK1 = JAK1 (Homo sapiens (Human), UniProt P23458); assay: Jak Biochemical HTRF Assay, JAK1; conditions: HTRF biochemical assay, GST-tagged catalytic domain; top concentration tested […]; read-out: JAK1 IC50
Text: (§1) Jak Biochemical HTRF Assay Protocol
(§2) Subsequent reagent additions employed an Agilent Bravo.

JAK2 = JAK2 (Homo sapiens (Human), UniProt O60674); assay: Jak Biochemical HTRF Assay, JAK2; conditions: HTRF biochemical assay, GST-tagged catalytic domain; top concentration tested […]
JAK2, sequence (O60674 849-1124): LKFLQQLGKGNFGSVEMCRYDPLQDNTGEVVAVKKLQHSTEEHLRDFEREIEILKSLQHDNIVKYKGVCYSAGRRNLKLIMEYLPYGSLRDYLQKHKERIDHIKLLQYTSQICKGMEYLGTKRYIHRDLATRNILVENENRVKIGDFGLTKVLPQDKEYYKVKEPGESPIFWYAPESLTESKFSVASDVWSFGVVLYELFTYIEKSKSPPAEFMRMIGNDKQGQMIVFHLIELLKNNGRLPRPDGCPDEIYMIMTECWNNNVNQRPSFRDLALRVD
Text: as §1, §2

JAK1, sequence (P23458 875-1153): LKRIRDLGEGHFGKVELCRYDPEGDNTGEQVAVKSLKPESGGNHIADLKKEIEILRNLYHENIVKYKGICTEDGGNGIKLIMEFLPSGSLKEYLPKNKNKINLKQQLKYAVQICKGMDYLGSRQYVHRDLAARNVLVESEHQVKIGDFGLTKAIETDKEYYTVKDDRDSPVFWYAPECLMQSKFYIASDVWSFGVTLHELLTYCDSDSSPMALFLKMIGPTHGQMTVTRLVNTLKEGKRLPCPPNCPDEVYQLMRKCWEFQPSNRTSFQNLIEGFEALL

| IC50 (JAK1) [nM] | IC50 (JAK2) [nM] | Compound |
| --- | --- | --- |
| 6 | 208 | N#CCC1(n2cc(C(N)=O)c(Nc3ccnc(F)c3)n2)CCN(Cc2cscn2)CC1 [Example 22-25, 1-[4-(cyanomethyl)-1-(1,3-thiazol-4-ylmethyl)piperidin-4-yl]-3-[(2-fluoropyridin-4-yl)amino]-1H-pyrazole-4-carboxamide] |
| 6 | 117 | N#CCC1(n2cc(C(N)=O)c(Nc3ccnc(F)c3)n2)CCN(Cc2cocn2)CC1 [Example 22-26, 1-[4-(cyanomethyl)-1-(1,3-oxazol-4-ylmethyl)piperidin-4-yl]-3-[(2-fluoropyridin-4-yl)amino]-1H-pyrazole-4-carboxamide] |
| 6 | 157 | Cc1cc(CN2CCC(CC#N)(n3cc(C(N)=O)c(Nc4ccnc(F)c4)n3)CC2)no1 [Example 22-27, 1-{4-(cyanomethyl)-1-[(5-methylisoxazol-3-yl)methyl]piperidin-4-yl}-3-[(2-fluoropyridin-4-yl)amino]-1H-pyrazole-4-carboxamide] |
| 3 | 73 | N#CCC1(n2cc(C(N)=O)c(Nc3ccnc(F)c3)n2)CCN(Cc2ncco2)CC1 [Example 22-28, 1-[4-(cyanomethyl)-1-(1,3-oxazol-2-ylmethyl)piperidin-4-yl]-3-[(2-fluoropyridin-4-yl)amino]-1H-pyrazole-4-carboxamide] |
| 2 | 37 | Cn1nccc1CN1CCC(CC#N)(n2cc(C(N)=O)c(Nc3ccnc(F)c3)n2)CC1 [Example 22-29, 1-{4-(cyanomethyl)-1-[(1-methyl-1H-pyrazol-5-yl)methyl]piperidin-4-yl}-3-[(2-fluoropyridin-4-yl)amino]-1H-pyrazole-4-carboxamide] |
| 86 | > 1500 | Cn1ccc(CN2CCC(CC#N)(n3cc(C(N)=O)c(Nc4ccnc(F)c4)n3)CC2)n1 [Example 22-30, 1-{4-(cyanomethyl)-1-[(1-methyl-1H-pyrazol-3-yl)methyl]piperidin-4-yl}-3-[(2-fluoropyridin-4-yl)amino]-1H-pyrazole-4-carboxamide] |
| 1 | 47 | N#CCC1(n2cc(C(N)=O)c(Nc3ccnc(F)c3)n2)CCN(Cc2ccon2)CC1 [Example 22-31, 1-[4-(cyanomethyl)-1-(isoxazol-3-ylmethyl)piperidin-4-yl]-3-[(2-fluoropyridin-4-yl)amino]-1H-pyrazole-4-carboxamide] |
| 2 | 83 | N#CCC1(n2cc(C(N)=O)c(Nc3ccnc(F)c3)n2)CCN(Cc2cccc(F)n2)CC1 [Example 22-32, 1-{4-(cyanomethyl)-1-[(6-fluoropyridin-2-yl)methyl]piperidin-4-yl}-3-[(2-fluoropyridin-4-yl)amino]-1H-pyrazole-4-carboxamide] |
| 2 | 81 | N#CCC1(n2cc(C(N)=O)c(Nc3ccnc(F)c3)n2)CCN(Cc2cccc3ccnn23)CC1 [Example 22-33, 1-[4-(cyanomethyl)-1-(pyrazolo[1,5-a]pyridin-7-ylmethyl)piperidin-4-yl]-3-[(2-fluoropyridin-4-yl)amino]-1H-pyrazole-4-carboxamide] |
| 8 | 163 | N#CCC1(n2cc(C(N)=O)c(Nc3ccnc(F)c3)n2)CCN(Cc2cc3ccccn3n2)CC1 [Example 22-34, 1-[4-(cyanomethyl)-1-(pyrazolo[1,5-a]pyridin-2-ylmethyl)piperidin-4-yl]-3-[(2-fluoropyridin-4-yl)amino]-1H-pyrazole-4-carboxamide] |
| 6 | 145 | N#CCC1(n2cc(C(N)=O)c(Nc3ccnc(F)c3)n2)CCN(Cc2cccnn2)CC1 [Example 22-35, 1-[4-(cyanomethyl)-1-(pyridazin-3-ylmethyl)piperidin-4-yl]-3-[(2-fluoropyridin-4-yl)amino]-1H-pyrazole-4-carboxamide] |
| 2 | 97 | N#CCC1(n2cc(C(N)=O)c(Nc3ccnc(F)c3)n2)CCN(Cc2ccc(F)cn2)CC1 [Example 22-36, 1-{4-(cyanomethyl)-1-[(5-fluoropyridin-2-yl)methyl]piperidin-4-yl}-3-[(2-fluoropyridin-4-yl)amino]-1H-pyrazole-4-carboxamide] |
| 88 | > 1500 | COC1CC(CN2CCC(CC#N)(n3cc(C(N)=O)c(Nc4ccnc(F)c4)n3)CC2)C1 (stereo not shown) [Example 22-37, 1-{4-(cyanomethyl)-1-[(3-methoxycyclobutyl)methyl]piperidin-4-yl}-3-[(2-fluoropyridin-4-yl)amino]-1H-pyrazole-4-carboxamide] |
| 0.2 | 5 | N#CCC1(n2cc(C(N)=O)c(Nc3ccnc(F)c3)n2)CCN(Cc2cncc(F)c2)CC1 [Example 22-38, 1-{4-(cyanomethyl)-1-[(5-fluoropyridin-3-yl)methyl]piperidin-4-yl}-3-[(2-fluoropyridin-4-yl)amino]-1H-pyrazole-4-carboxamide] |
| 0.2 | 14 | N#CCC1(n2cc(C(N)=O)c(Nc3ccnc(F)c3)n2)CCN(Cc2cc3ccccc3[nH]2)CC1 [Example 22-39, 1-[4-(cyanomethyl)-1-(1H-indol-2-ylmethyl)piperidin-4-yl]-3-[(2-fluoropyridin-4-yl)amino]-1H-pyrazole-4-carboxamide] |
| 23 | 582 | Cc1c(CN2CCC(CC#N)(n3cc(C(N)=O)c(Nc4ccnc(F)c4)n3)CC2)cnn1C [Example 22-40, 1-{4-(cyanomethyl)-1-[(1,5-dimethyl-1H-pyrazol-4-yl)methyl]piperidin-4-yl}-3-[(2-fluoropyridin-4-yl)amino]-1H-pyrazole-4-carboxamide] |
| 18 | 641 | N#CCC1(n2cc(C(N)=O)c(Nc3ccnc(F)c3)n2)CCN(Cc2nc3ccccc3[nH]2)CC1 [Example 22-41, 1-[1-(1H-benzimidazol-2-ylmethyl)-4-(cyanomethyl)piperidin-4-yl]-3-[(2-fluoropyridin-4-yl)amino]-1H-pyrazole-4-carboxamide] |
| 18 | 582 | CC1=NOC(CN2CCC(CC#N)(n3cc(C(N)=O)c(Nc4ccnc(F)c4)n3)CC2)C1 (stereo not shown) [Example 22-42, 1-{4-(cyanomethyl)-1-[(3-methyl-4,5-dihydroisoxazol-5-yl)methyl]piperidin-4-yl}-3-[(2-fluoropyridin-4-yl)amino]-1H-pyrazole-4-carboxamide] |
| 1 | 64 | N#CCC1(n2cc(C(N)=O)c(Nc3ccc(F)cc3)n2)CCN(Cc2cc3ccccc3[nH]2)CC1 [Example 22-43, 1-[4-(cyanomethyl)-1-(1H-indol-2-ylmethyl)piperidin-4-yl]-3-[(4-fluorophenyl)amino]-1H-pyrazole-4-carboxamide] |
| 5 | 22 | Cc1cnc(F)c(CN2CCC(CC#N)(n3cc(C(N)=O)c(Nc4ccc(F)cc4)n3)CC2)c1 [Example 22-44, 1-{4-(cyanomethyl)-1-[(2-fluoro-5-methylpyridin-3-yl)methyl]piperidin-4-yl}-3-[(4-fluorophenyl)amino]-1H-pyrazole-4-carboxamide] |
| 2 | 34 | N#CCC1(n2cc(C(N)=O)c(Nc3ccc(F)cc3)n2)CCN(Cc2ccon2)CC1 [Example 22-45, 1-[4-(cyanomethyl)-1-(isoxazol-3-ylmethyl)piperidin-4-yl]-3-[(4-fluorophenyl)amino]-1H-pyrazole-4-carboxamide] |
| 3 | 95 | N#CCC1(n2cc(C(N)=O)c(Nc3ccc(F)cc3)n2)CCN(Cc2cccc(F)n2)CC1 [Example 22-46, 1-{4-(cyanomethyl)-1-[(6-fluoropyridin-2-yl)methyl]piperidin-4-yl}-3-[(4-fluorophenyl)amino]-1H-pyrazole-4-carboxamide] |
| 6 | 100 | N#CCC1(n2cc(C(N)=O)c(Nc3ccc(F)cc3)n2)CCN(Cc2cccnn2)CC1 [Example 22-47, 1-[4-(cyanomethyl)-1-(pyridazin-3-ylmethyl)piperidin-4-yl]-3-[(4-fluorophenyl)amino]-1H-pyrazole-4-carboxamide] |
| 2 | 73 | N#CCC1(n2cc(C(N)=O)c(Nc3ccc(F)cc3)n2)CCN(Cc2ccc(F)cn2)CC1 [Example 22-48, 1-{4-(cyanomethyl)-1-[(5-fluoropyridin-2-yl)methyl]piperidin-4-yl}-3-[(4-fluorophenyl)amino]-1H-pyrazole-4-carboxamide] |
| 2 | 29 | N#CCC1(n2cc(C(N)=O)c(Nc3ccc(F)cc3)n2)CCN(Cc2cncc(F)c2)CC1 [Example 22-49, 1-{4-(cyanomethyl)-1-[(5-fluoropyridin-3-yl)methyl]piperidin-4-yl}-3-[(4-fluorophenyl)amino]-1H-pyrazole-4-carboxamide] |
| 0.6 | 16 | N#CCC1(n2cc(C(N)=O)c(Nc3ccc(F)cc3)n2)CCN(Cc2cc(F)ccn2)CC1 [Example 22-50, 1-{4-(cyanomethyl)-1-[(4-fluoropyridin-2-yl)methyl]piperidin-4-yl}-3-[(4-fluorophenyl)amino]-1H-pyrazole-4-carboxamide] |
| 0.4 | 9 | N#CCC1(n2cc(C(N)=O)c(Nc3ccc(F)cc3)n2)CCN(Cc2cccnc2)CC1 [Example 22-51, 1-[4-(cyanomethyl)-1-(pyridin-3-ylmethyl)piperidin-4-yl]-3-[(4-fluorophenyl)amino]-1H-pyrazole-4-carboxamide] |
| 1 | 25 | N#CCC1(n2cc(C(N)=O)c(Nc3ccc(F)cc3)n2)CCN(Cc2cnccn2)CC1 [Example 22-52, 1-[4-(cyanomethyl)-1-(pyrazin-2-ylmethyl)piperidin-4-yl]-3-[(4-fluorophenyl)amino]-1H-pyrazole-4-carboxamide] |
| 4 | 87 | N#CCC1(n2cc(C(N)=O)c(Nc3ccc(F)cc3)n2)CCN(Cc2ccnc3[nH]ccc23)CC1 [Example 22-53, 1-[4-(cyanomethyl)-1-(1H-pyrrolo[2,3-b]pyridin-4-ylmethyl)piperidin-4-yl]-3-[(4-fluorophenyl)amino]-1H-pyrazole-4-carboxamide] |
